Key:
[1] = tested on: tBid / Bcl-xL heterodimerization; assay: tBid pulldown with Bcl-xL-His6 beads; type: binding; conditions: for relative activity in tBid pulldown: comparison between compounds; for effect on tBid binding to Bcl-xL: 35S labeled in vitro translated tBid
Experimental: Next, it was determined whether BH3Is could disrupt the heterodimerization of Bcl-xL with pro-apoptotic proteins from the Bcl-2 family, such as truncated Bid (tBid). Truncation of Bid by caspase-8 activates Bid and dramatically increases its affinity towards anti-apoptotic Bcl-2 family members (Li et al., Cell 94:491-501, 1998). To perform this study, in vitro translation of tBid or U2AF^65 (control) was performed using TNT® Coupled Reticulocyte and Wheat Germ Lysate Systems (Promega) respectively. Bcl-xL, U2AF^35 (control) or corresponding amounts of original Ni-NTA agarose beads (blank) were pre-incubated with the BH3 inhibitors or peptide in 100 μl of PBS for 30 min at 25° C. Then 1 μl of ^35S-labeled tBID or U2AF^65 was added and incubation was continued for 2 hr at 4° C. The samples were subjected to SDS-PAGE, coomassie blue staining and autoradiography.

[2] = target: T1, Bcl-xL/Bax heterodimerization in 293 cells (Homo sapiens, UniProt Q07817); assay: FRET between Bcl-xL-CFP and Bax-YFP in intact cells; type: cell-based; conditions: rank order; for order of relative effects on YFP fluorescence reduction: rough index of cell death
T1 construct: expressed in transfected cells; host or cells: 293 cells
T1 sequence (Q07817 whole entry, one chain of several): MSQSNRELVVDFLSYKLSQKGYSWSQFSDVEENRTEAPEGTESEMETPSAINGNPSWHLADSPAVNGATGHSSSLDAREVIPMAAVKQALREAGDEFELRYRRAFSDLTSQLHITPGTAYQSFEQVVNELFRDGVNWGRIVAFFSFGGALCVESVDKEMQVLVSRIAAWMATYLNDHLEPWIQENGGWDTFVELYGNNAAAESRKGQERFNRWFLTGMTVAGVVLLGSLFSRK
Source text: The effect of the BH3Is on the disruption of the heterodimerization of Bcl-2 family proteins in vivo was next determined. Dimerization of Bcl-2 in immunoprecipitation experiments may represent post-lysis events induced by detergents (Hsu et al., J. Biol. Chem. 272:13829-34, 1997). Therefore, these studies focused on assaying the Bcl-xL dimerization status in intact cells. Recently, the interaction between Bax and Bcl-2 has been studied in intact living cells by fluorescent resonance energy transfer measurements between GFP fusion proteins (Mahajan et al., Nat. Biotechnol. 16:547-52, 1998). This approach was used to monitor the effects of BH3Is on Bcl-xL/Bax heterodimerization in intact cells.
293 cells were transfected with Bcl-xL-CFP and Bax-YFP expression vectors using Lipofectamine Plus (Gibco) or TransLT-1 (PanVera) and 24 hr later were treated with BH3Is. Cells were harvested in PBS supplemented with BH3Is, and fluorescence was determined using a C-60 fluorimeter (PTI) or a Wallac platereader. Fluorescence in the samples separately overexpressing Bax and Bcl-xL was added together and used to estimate the FRET value in the absence of dimerization. The extent of FRET between CFP and YFP was determined as a ratio of fluorescence at 527 nm vs. 475 nm after excitation at 433 nm.

[3] = tested on: Bak BH3 peptide / Bcl-xL (Bcl-xL/GST, Bcl-xL-His6) interaction; assay: Fluorescence polarization assay, labeled Bak BH3 peptide binding to Bcl-xL fusion protein; conditions: for order of affinities of BH3Is: overall rank order from FP, NMR, pulldown and SELDI results; for order of decreasing affinity, fluorescence polarization assays: rank order
Source text: We have used a fluorescence polarization assay to screen a library of 16,000 chemical compounds (ChemBridge, San Diego, Calif.) to identify small molecules that inhibit the interaction between a peptide corresponding to the BH3 domain of a pro-apoptotic protein and a recombinant Bcl-xL/GST fusion protein. In this assay, an […] peptide corresponding to the BH3 domain of Bak was used. The Bak peptide was labeled with a fluorescent tag, such as OREGON GREEN. Upon binding of the tagged peptide to the Bcl-xL/GST fusion protein, the polarization of light emitted by the tagged peptide is altered. […] Conversely, in a sample in which a compound does inhibit the interaction between the Bak peptide and the Bcl-xL/GST fusion protein the polarization of light emitted by the peptide will not be altered.
A nineteen amino acid Bak peptide, corresponding to the BH3 domain of Bak, with the sequence […] (SEQ ID NO: 2) was labeled with the fluorophore OREGON GREEN according to the manufacturer's instructions (Molecular Probes, Eugene, Oreg.). In addition, a recombinant Bcl-xL/GST fusion protein was generated using conventional techniques known to those skilled in the fields of biochemistry and molecular biology. The interaction between the Bak peptide and the Bcl-xL/GST fusion protein was confirmed.
A screen of approximately 16,000 compounds from the ChemBridge chemical compound library was conducted to identify compounds that disrupt the interaction between the Bak peptide and the Bcl-xL/GST fusion protein. The ability of a compound to disrupt the interaction between the two polypeptides was assessed using a fluorescence polarization assay. The Bak peptide and Bcl-xL/GST fusion protein (15 nM each; dissolved in PBS) were first combined, and then the compound was added. Alternatively, the Bak peptide, Bcl-xL/GST fusion protein, and test compound (5 mg/ml; dissolved in 0.1-0.5 gl of DMSO) may be combined in any order. Normally the unbound Bak polypeptide results in polarization of approximately 40 mP units. Upon binding of the Bcl-xL/GST fusion protein, polarization increased to approximately 100-120 mP units.
In a preferred method, the fluorescence assay was carried out as follows. Bak BH3 peptide (Research Genetics) was labeled using NHS-OREGON GREEN (Molecular Probes) and purified by HPLC. For the initial screening assays, 33 nM of labeled BH3 peptide, 2 μM of GST-Bcl-xL protein, 0.1% bovine gamma globulin (BGG, Sigma) and 1 mM DTT mixed with PBS, pH 7.2 (Gibco) were added into 384 well black plates (Lab Systems) using MULTIDROP (Lab Systems). Small molecules (5 mg/ml in DMSO, ChemBridge) were transferred using plastic 384-pin arrays (Genetix). The plates were incubated for 1-2 hr at 25° C., and the fluorescence polarization assay values were determined using an Analyst plate reader (LJL Biosystems). Reactions containing 16.65 nM of labeled BH3 peptide and 4.2 μM of Bcl-xL-His6 fusion protein, which was previously utilized to characterize BH3/Bcl-xL binding (Sattler et al., Science 275:983-6, 1997) were used for the further fluorescence polarization analyses. Kd and Ki determination was performed as previously described using […] PRISM software package (GraphPad) (Dandliker et al., Methods Enzymol. 74:3-28,1981).
In a further screen, various concentrations of each of the above-identified compounds were evaluated for their potency. A serial dilution of each chemical compound was performed and the fluorescence polarization assay was repeated, as per the primary screen. As a result of the secondary screening, three compounds, chemical compound ID numbers 275805 (BH3I-1; FIG. 1), 282986 (BH3I-1′; FIG. 2), and 175362 (BH3I-2; FIG. 3), collectively termed “BH3Is,” were identified to disrupt the interaction between Bak and the BCL-xL/GST fusion protein. […] Additional homologues of the BH3I-1s (BH3I-1″ and BH3I-1′″) and BH3I-2 (BH3-2″ and BH3I-2″) were also analyzed in the study (FIG. 4). […]

Structure (SMILES) | relative activity in tBid pulldown [1] | order of changes in the FRET ratio [2] | order of relative effects on YFP fluorescence reduction [2] | order of affinities of BH3Is [3] | order of decreasing affinity, fluorescence polarization assays [3] | effect on tBid binding to Bcl-xL [1]
CC(C)C(C(=O)O)N1C(=O)/C(=C/c2ccccc2)SC1=S (stereo not shown) [BH3I-1″] | even lower | BH3I-2>BH3I-1>BH3I-1″ | BH3I-2>BH3I-I>BH3I-1″ | BH312′>BH3I-2>BH3I-2″>BH3I-1>BH3I-1′>BH3I-1″>BH3I-1′″ | BH3I-1>BH3I-1′>BH3I-2′>BH3I-2>BH3I-2″>BH3I-1″ | 
CC(C)C(C(=O)O)N1C(=O)C(=Cc2ccc(Br)cc2)SC1=S (stereo in doubt) [BH3I-1] | lower activity than BH3I-2 | BH3I-2>BH3I-1>BH3I-1″ | BH3I-2>BH3I-I>BH3I-1″ | BH312′>BH3I-2>BH3I-2″>BH3I-1>BH3I-1′>BH3I-1″>BH3I-1′″ | BH3I-1>BH3I-1′>BH3I-2′>BH3I-2>BH3I-2″>BH3I-1″ | dose-dependent decrease in the tBid binding
O=C(Nc1cc(S(=O)(=O)c2ccc(Cl)cc2)ccc1Cl)c1cc(Cl)cc(Br)c1O [BH3I-2] |  | BH3I-2>BH3I-1>BH3I-1″ | BH3I-2>BH3I-I>BH3I-1″ | BH312′>BH3I-2>BH3I-2″>BH3I-1>BH3I-1′>BH3I-1″>BH3I-1′″ | BH3I-1>BH3I-1′>BH3I-2′>BH3I-2>BH3I-2″>BH3I-1″ | dose-dependent decrease in the tBid binding
